Reference: article PMC12606464, “Investigating NFE2L1 activators for targeted protein aggregate clearance: a follow-up study” (RSC Medicinal Chemistry, 2025)

Experiments:
HEK293 cells = assay: alamarBlue cytotoxicity assessment in HEK293 cells; format: cell-based, human; conditions: for Mean 1 (viability; 0 µM = 100): Fig. S2, n = 3; for Tox [% of ctrl.]: HEK293, alamarBlue, 16 h, concentration not given
In short: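 HEK293 cells exposed 16 h to compound at 1.25, 2.5, 5, 7.5 and 10 µM, with DMSO as vehicle control. Viability read by alamarBlue; means ± SD of three independent experiments.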

[1] = system: NFE2L1 pathway (DDI2-dependent) in HCT116 cells; assay: 3×PSMA4-ARE-LUC reporter in HCT116 WT and DDI2 knockout cells; format: cell-based, human
Description: Fig. 1 (A) Targeted library screening of RUN compounds using the 3×PSMA4-ARE-LUC dual reporter assay in HEK293 cells. Cells were exposed to RUN compounds (5 μM) for 16 hours, and luciferase activity was measured. Data are presented as the mean ± SD from three independent experiments (n = 3). Results are shown as a fold change in luminescence relative to DMSO-treated cells. Selected hit compounds are highlighted in distinct colours. (B) RUN-89 specifically activates the NFE2L1 pathway. The DDI2 knockout (KO) and parental (WT) HCT116 cells were transfected with the 3×PSMA4-ARE-LUC reporter and treated with 0.5 μM bortezomib (BTZ) and 5 μM RUN-89 for 16 hours. Data are presented as the Geomean ± GeoSD of three independent experiments (n = 3). Statistical analysis was performed on log2-transformed values using two-way repeated-measures ANOVA followed by Šídak's multiple comparison test. (C) RUN-89 selectively triggers downstream signaling events associated with NFE2L1 gene expression. HEK293 cells were transfected with lipid nanoparticles (LNPs) carrying siRNAs targeting NFE2L1 or NFE2L2. LNPs formulated with non-targeting siRNA served as a negative control. Following 24 hours of incubation, cells were treated with 7.5 μM RUN-89 or DMSO (vehicle) for an additional 16 hours. Expression of the proteasomal subunit gene PSMC4 was then quantified by RT-qPCR. Data are shown as the Geomean ± GeoSD from three independent biological replicates (n = 3). Log2-transformed data were analyzed using two-way repeated-measures ANOVA with the Geisser–Greenhouse correction, followed by Tukey's multiple comparison test with individual variances computed for each comparison. Additional results for NFE2L1, NFE2L2, PSMB7, and PSMD12 are presented in SI Fig. S10.
To clarify whether the representative compound RUN-89 activates the NFE2L1-specific luciferase reporter independently of the KEAP1–NFE2L2 pathway, we used the 3×PSMA4-ARE-LUC dual reporter in previously published DDI2 knockout HCT116 cells (from ATCC CCL-247 (RRID:CVCL_0291)), in which the protease essential for NFE2L1 activation is disrupted. […] These findings indicate that RUN-89 activates the reporter construct through NFE2L1.
2 Biology Experimental Procedures […]
Cell lines were sourced from the ATCC (USA) and/or ECACC (UK), namely HCT116 (human colorectal carcinoma), ATCC CCL-247 (RRID:CVCL_0291), HEK-293 (human embryonic kidney), ATCC CRL-1573 (RRID:CVCL_0045), SH-SY5Y (human neuroblastoma), ATCC CRL-2266 (RRID:CVCL_0019). The characteristics of DDI2 knockout cells derived from HCT116 cells have been described previously (Sedlacek et al., 2025). All cell lines were tested for mycoplasma contamination. Most of the cell lines were cultured in Dulbecco's Modified Eagle Medium (DMEM) enriched with 10% fetal bovine serum (FBS) and 2 mM L-glutamine, under standard conditions of 37 °C with 5% CO₂. DNA transfection was performed with Lipofectamine 2000, following the manufacturer's instructions. […]
alamarBlue assay according to the standard protocol.(1)
2.3 Dual luciferase phenotypic assays
HEK293-derived cells stably expressing the 3×PSMA4-ARE-Luc reporter were maintained at low to mid passage numbers before use. For each experiment, cells were transiently transfected with the pRL-TK Renilla luciferase plasmid using Lipofectamine 2000.
Approximately 5–6 hours post-transfection, cells were seeded into plate format according to the experiment (384-well plate mostly). On the following day, cells were treated with the indicated test compounds or DMSO vehicle control for 16 hours (unless otherwise specified).
After treatment, cells were lysed and luciferase activities were quantified using the Dual-Luciferase® Reporter Assay System according to the manufacturer’s instructions and established protocols.(2, 3) For assays using the CMV-XBP-Gluc construct encoding Gaussia […]

Structure (SMILES) | Mean 1 (viability; 0 µM = 100) (HEK293 cells; 5 uM) | Mean 1 (viability; 0 µM = 100) (HEK293 cells; 10 uM) | Mean 1 (viability; 0 µM = 100) (HEK293 cells; 1,125 uM) | Mean 1 (viability; 0 µM = 100) (HEK293 cells; 2,5 uM) | Mean 1 (viability; 0 µM = 100) (HEK293 cells; 7,5 uM) | Tox [% of ctrl.] (HEK293 cells) | Mean log2-transformed reporter fold change, HCT116 KO 04 ([1]; DDI2-/- clone KO 04, 0.5 μM BTZ or 5 μM RUN-89, 16 h, DMSO = 0) | Mean log2-transformed reporter fold change, HCT116 KO 11 ([1]; DDI2-/- clone KO 11, 0.5 μM BTZ or 5 μM RUN-89, 16 h, DMSO = 0) | Reporter activity in DDI2-deficient cells ([1]; DDI2 knockout HCT116, in contrast to wild-type cells) | Mean log2-transformed reporter fold change, HCT116 WT ([1]; WT (DDI2+/+), 0.5 μM BTZ or 5 μM RUN-89, 16 h, DMSO = 0)
COc1ccc(/C=C2\CC(N)C/C(=C\c3ccc(OC)c(OC)c3)C2=O)cc1OC (stereo not shown) [RUN-81] | 80.55 | 79.08 | 98.04 | 92.22 | 79.02 | 84% of ctrl. |  |  |  | 
COc1ccc(/C=C2\CC(NC(=O)C3CCCC3)C/C(=C\c3ccc(OC)c(OC)c3)C2=O)cc1OC (stereo not shown) [RUN-89] | 76.01 | 68.72 | 100.7 | 91.49 | 71.31 | 81% of ctrl. | 0.09237 | 0.4773 | neither the proteasome inhibitor bortezomib nor RUN-89 induced reporter activity | 1.7
COc1ccc(/C=C2\CC(NC(=O)c3ccccn3)C/C(=C\c3ccc(OC)c(OC)c3)C2=O)cc1OC (stereo not shown) [RUN-94] | 86.01 | 74.87 | 105.6 | 101.6 | 75.79 | 78% of ctrl. |  |  |  | 
